These compounds were tested against T1, SHP2 protein (Homo sapiens, UniProt Q06124) (assay: Degradation activity on SHP2 protein in MIA Paca-2 cells (Western blot, DC50)). Conditions: read-out: Degradation activity for differenct cell lines MIA Paca-2 (DC50).
T1 sequence (Q06124 1-593): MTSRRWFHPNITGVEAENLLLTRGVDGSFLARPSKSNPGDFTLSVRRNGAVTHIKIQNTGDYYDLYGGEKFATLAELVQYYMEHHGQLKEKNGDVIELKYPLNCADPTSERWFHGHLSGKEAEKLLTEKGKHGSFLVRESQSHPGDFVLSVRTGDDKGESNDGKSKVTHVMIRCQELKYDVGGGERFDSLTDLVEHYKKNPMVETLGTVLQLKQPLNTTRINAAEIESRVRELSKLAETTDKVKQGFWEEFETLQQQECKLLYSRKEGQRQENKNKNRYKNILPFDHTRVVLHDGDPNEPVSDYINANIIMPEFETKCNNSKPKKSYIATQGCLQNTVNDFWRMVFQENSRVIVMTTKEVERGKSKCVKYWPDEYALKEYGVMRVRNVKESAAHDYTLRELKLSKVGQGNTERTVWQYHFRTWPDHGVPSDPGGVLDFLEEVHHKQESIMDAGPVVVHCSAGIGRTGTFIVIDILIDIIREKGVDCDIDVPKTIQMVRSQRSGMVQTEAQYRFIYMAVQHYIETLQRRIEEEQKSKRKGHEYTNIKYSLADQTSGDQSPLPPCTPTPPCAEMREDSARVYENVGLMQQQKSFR
Type: cell-based
Parameters: endogenous in cells; host or cells: MIA Paca-2 cells
How it was run: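 Cells were treated 24 h at 37 °C with compound (0.1–100 nM final, 0.1% DMSO). SHP2 was measured by Western blot with GAPDH as loading control, densitometry normalized to DMSO (100%). DC50, the concentration giving 50% degradation, came from a dose-response fit.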

Row | SMILES | DC50 [nM]
1 | CC1(N)CCN(c2cnc(Sc3cccc(NC(=O)c4ccc(-c5ccc(N6CCC7(CC6)CC(C(=O)NCc6ccc8c(c6)CN(C6CCC(=O)NC6=O)C8=O)C7)cc5)cc4)c3)cn2)CC1 (stereo not shown) [Compound 415] | > 1000
2 | CC1(N)CCN(c2cnc(Sc3cccc(NC(=O)c4ccc(C5=CCC(N6CC=C(c7ccnc(C(=O)NCc8ccc9c(c8)CN(C8CCC(=O)NC8=O)C9=O)c7)C6)CC5)c(F)c4)c3)cn2)CC1 (stereo not shown) [Compound 416] | > 1000
3 | CC1(N)CCN(c2cnc(Sc3cccc(NC(=O)c4ccc(N5CCC(N6CC=C(c7ncc(C(=O)NCc8ccc9c(c8)CN(C8CCC(=O)NC8=O)C9=O)o7)CC6)CC5)c(F)c4)c3)cn2)CC1 (stereo not shown) [Compound 417] | > 1000
4 | CC1(N)CCN(c2cnc(Sc3cccc(NC(=O)c4ccc(-c5ccc(N6CCC(C7=CCC(C(=O)NCc8ccc9c(c8)CN(C8CCC(=O)NC8=O)C9=O)CC7)CC6)cc5)cc4)c3)cn2)CC1 (stereo not shown) [Compound 423] | > 1000
5 | COC(=O)NC1(C)CCN(c2cnc(Sc3cccc(NC(=O)c4ccc(N5CCC(N6CC=C(c7ccc(C(=O)NCc8ccc9c(c8)CN(C8CCC(=O)NC8=O)C9=O)nc7)CC6)CC5)c(F)c4)c3)cn2)CC1 (stereo not shown) [Compound 424] | > 1000
6 | CC(=O)NC1(C)CCN(c2cnc(Sc3cccc(NC(=O)c4ccc(N5CCC(N6CC=C(c7ccc(C(=O)NCc8ccc9c(c8)CN(C8CCC(=O)NC8=O)C9=O)nc7)CC6)CC5)c(F)c4)c3)cn2)CC1 (stereo not shown) [Compound 425] | > 1000
7 | CC1(N)CCN(c2cnc(Sc3cccc(NC(=O)c4ccc(N5CCC(N6C=C(c7ncc(C(=O)NCc8ccc9c(c8)CN(C8CCC(=O)NC8=O)C9=O)o7)CC6)CC5)c(F)c4)c3)cn2)CC1 (stereo not shown) [Compound 426] | > 1000
8 | C[C@H](N)C(=O)N[C@@H](Cc1ccccc1)C(=O)NC1(C)CCN(c2cnc(Sc3cccc(NC(=O)c4ccc(N5CCC(N6CC=C(c7ccc(C(=O)NCc8ccc9c(c8)CN(C8CCC(=O)NC8=O)C9=O)nc7)CC6)CC5)cc4)c3)cn2)CC1 (stereo partly shown) [Compound 427] | > 1000
9 | CC1(N)CCN(c2cnc(Sc3cccc(NC(=O)c4ccc(C5=CCC(N6CC=C(c7ccc(C(=O)NCc8ccc9c(c8)CN(C8CCC(=O)NC8=O)C9=O)nc7)CC6)CC5)nc4)c3)cn2)CC1 (stereo not shown) [Compound 432] | > 1000
10 | COCC1(N)CCN(c2cnc(Sc3cccc(NC(=O)c4ccc(N5CCC(N6CC=C(c7ccc(C(=O)NCc8ccc9c(c8)CN(C8CCC(=O)NC8=O)C9=O)nn7)CC6)CC5)cc4)c3)cn2)CC1 (stereo not shown) [Compound 433] | > 1000
11 | Cc1cc(C(=O)Nc2cccc(Sc3cnc(N4CCC(C)(N)CC4)cn3)c2)ccc1N1CCC(N2CC=C(c3cnc(C(=O)NCc4ccc5c(c4)CN(C4CCC(=O)NC4=O)C5=O)c(Cl)c3)CC2)CC1 (stereo not shown) [Compound 440] | > 1000
12 | Cc1cc(C(=O)Nc2cccc(Sc3cnc(N4CCC(C)(N)CC4)cn3)c2)ccc1N1CCC(N2CC=C(c3ccc(C(=O)NCc4ccc5c(c4)CN(C4CCC(=O)NC4=O)C5=O)nc3Cl)CC2)CC1 (stereo not shown) [Compound 441] | > 1000
13 | CC1(N)CCN(c2cnc(Sc3cccc(NC(=O)c4ccc(N5CCC(N6CCN(c7ccc(C(=O)NCc8ccc9c(c8)CN(C8CCC(=O)NC8=O)C9=O)nn7)CC6)CC5)cn4)c3)cn2)CC1 (stereo not shown) [Compound 447] | > 1000
14 | Cc1cc(N2CCC(N3CC=C(c4ccc(C(=O)NCc5ccc6c(c5)CN(C5CCC(=O)NC5=O)C6=O)cc4)CC3)CC2)ccc1C(=O)Nc1cccc(Sc2cnc(N3CCC(C)(N)CC3)cn2)c1 (stereo not shown) [Compound 454] | 100 to 1000
15 | Cc1cc(C(=O)NCc2ccc3c(c2)CN(C2CCC(=O)NC2=O)C3=O)ncc1C1=CCN(C2CCN(c3ccc(C(=O)Nc4cccc(Sc5cnc(N6CCC(C)(N)CC6)cn5)c4)cc3C)CC2)CC1 (stereo not shown) [Compound 456] | 100 to 1000
16 | Cc1cc(C(=O)NCc2ccc3c(c2)CN(C2CCC(=O)NC2=O)C3=O)ncc1C1=CCN(C2CCN(c3ccc(C(=O)Nc4cccc(Sc5cnc(N6CCC7(CC6)CO[C@@H](C)[C@H]7N)cn5)c4)cc3F)CC2)CC1 (stereo partly shown) [Compound 458] | > 1000

Other lines, results leading:

Row | DC50 [nM] | SMILES
17 | < 100 | CC1(N)CCN(c2cnc(Sc3cccc(NC(=O)C4CCC(N5CCC(N6CC=C(c7ccc(C(=O)NCc8ccc9c(c8)CN(C8CCC(=O)NC8=O)C9=O)nc7)CC6)C(F)C5)CC4)c3)cn2)CC1 (stereo not shown) [Compound 420]
18 | 100 to 1000 | CC1(N)CCN(c2cnc(Sc3cccc(NC(=O)c4ccc(N5CCC(N6CC=C(c7cnc(C(=O)NCc8ccc9c(c8)CN(C8CCC(=O)NC8=O)C9=O)c(F)c7)CC6)CC5)nc4)c3)cn2)CC1 (stereo not shown) [Compound 428]
19 | 100 to 1000 | CC1(N)CCN(c2cnc(Sc3cccc(NC(=O)c4cnc(N5CCC(N6CC=C(c7ccc(C(=O)NCc8ccc9c(c8)CN(C8CCC(=O)NC8=O)C9=O)nn7)CC6)CC5)cn4)c3)cn2)CC1 (stereo not shown) [Compound 429]
20 | 100 to 1000 | CC1(N)CCN(c2cnc(Sc3cccc(NC(=O)c4cnc(N5CCC(N6CC=C(c7ccc(C(=O)NCc8ccc9c(c8)CN(C8CCC(=O)NC8=O)C9=O)nc7)CC6)CC5)cn4)c3)cn2)CC1 (stereo not shown) [Compound 430]
21 | 100 to 1000 | CC1(N)CCN(c2cnc(Sc3cccc(NC(=O)c4ccc(N5CCC(N6CC=C(c7cnc(C(=O)NCc8ccc9c(c8)CN(C8CCC(=O)NC8=O)C9=O)c(Cl)c7)CC6)CC5)nc4)c3)cn2)CC1 (stereo not shown) [Compound 431]
22 | < 100 | COCC1(N)CCN(c2cnc(Sc3cccc(NC(=O)c4ccc(N5CCC(N6CC=C(c7ccc(C(=O)NCc8ccc9c(c8)CN(C8CCC(=O)NC8=O)C9=O)nc7)CC6)CC5)cc4)c3)cn2)CC1 (stereo not shown) [Compound 434]
23 | 100 to 1000 | CC1(N)CCN(c2cnc(Sc3cccc(NC(=O)c4ccc(N5CCC(N6CCN(c7ccc(C(=O)NCc8ccc9c(c8)CN(C8CCC(=O)NC8=O)C9=O)nc7)CC6)CC5)nc4)c3)cn2)CC1 (stereo not shown) [Compound 436]
24 | < 100 | CC1(N)CCN(c2cnc(Sc3cccc(NC(=O)c4ccc(N5CCC(N6CCN(c7ccc(C(=O)NCc8ccc9c(c8)CN(C8CCC(=O)NC8=O)C9=O)nn7)CC6)CC5)nc4)c3)cn2)CC1 (stereo not shown) [Compound 437]
25 | < 100 | Cc1cc(N2CCC(N3CC=C(c4cnc(C(=O)NCc5ccc6c(c5)CN(C5CCC(=O)NC5=O)C6=O)c(F)c4)CC3)CC2)ccc1C(=O)Nc1cccc(Sc2cnc(N3CCC(C)(N)CC3)cn2)c1 (stereo not shown) [Compound 438]
26 | < 100 | Cc1cc(N2CCC(N3CC=C(c4ccc(C(=O)NCc5ccc6c(c5)CN(C5CCC(=O)NC5=O)C6=O)nc4Cl)CC3)CC2)ccc1C(=O)Nc1cccc(Sc2cnc(N3CCC(C)(N)CC3)cn2)c1 (stereo not shown) [Compound 444]
27 | < 100 | CC1(N)CCN(c2cnc(Sc3cccc(NC(=O)c4ncc(N5CCC(N6CCN(c7ccc(C(=O)NCc8ccc9c(c8)CN(C8CCC(=O)NC8=O)C9=O)nn7)CC6)CC5)cn4)c3)cn2)CC1 (stereo not shown) [Compound 449]
28 | < 100 | CC1(N)CCN(c2cnc(Sc3cccc(NC(=O)c4ccc(N5CCC(N6CCN(c7ccc(C(=O)NCc8ccc9c(c8)CN(C8CCC(=O)NC8=O)C9=O)nc7)CC6)CC5)nn4)c3)cn2)CC1 (stereo not shown) [Compound 450]
29 | < 100 | Cc1cc(C(=O)Nc2cccc(Sc3cnc(N4CCC(C)(N)CC4)cn3)c2)ccc1N1CCC(N2CC=C(c3cnc(C(=O)NCc4ccc5c(c4)CN(C4CCC(=O)NC4=O)C5=O)cc3Cl)CC2)CC1 (stereo not shown) [Compound 452]
30 | 100 to 1000 | Cc1cc(C(=O)Nc2cccc(Sc3cnc(N4CCC(C)(N)CC4)cn3)c2)ccc1N1CCC(N2CC=C(c3ccc(C(=O)NCc4ccc5c(c4)CN(C4CCC(=O)NC4=O)C5=O)cc3)CC2)CC1 (stereo not shown) [Compound 453]
31 | < 100 | C[C@@H]1OCC2(CCN(c3cnc(Sc4cccc(NC(=O)c5ccc(N6CCC(N7CC=C(c8ccc(C(=O)NCc9ccc%10c(c9)CN(C9CCC(=O)NC9=O)C%10=O)cc8Cl)CC7)CC6)c(F)c5)c4)cn3)CC2)[C@@H]1N (stereo partly shown) [Compound 459]
